Measured values reported in patent US10328094B2, “Compound from the avermectin family for treating and/or preventing folliculitis” (GALDERMA SA, priority 2015, dated 2019).
“Also recorded” adds a separate entry of the source.

What was measured:
[1] = test system: primary human keratinocytes; test: Gene expression by quantitative PCR in primary human keratinocytes treated with erlotinib and/or ivermectin +/- TNF-α/IL-1β; format: cell-based
Protocol: A study was carried out on primary human keratinocytes in vitro, in order to determine the effect of ivermectin on the regulation of genes of which the expression has been identified as being modulated by EGFR inhibitors. Said genes identified are the pro-inflammatory chemokines CCL2, CCL5, CCL27 and CXCL14 and the cytokines of the IL-1β family, but also the genes of antimicrobial peptides RNase7, HBD3 and LL37.
(§1) To do this, primary human keratinocytes were cultured with various concentrations of EGFR inhibitor (in this case erlotinib) each with +/− TNF-α/IL-1β, various concentrations of ivermectin alone each with +/− TNF-α/IL-1β various concentrations of erlotinib and of ivermectin each with +/− TNF-α/IL-1β. The addition of the pro-inflammatory cytokines TNFα and IL1β makes it possible to mimic the skin inflammation.
(§2) The various concentrations used were the following: • Erlotinib: 0-0.1 μM-1 μM-10 μM (each with +/− TNF-α/IL-1β) • Ivermectin: 0-0.1 μM-1 μM-10 μM (each with +/− TNF-α/IL-1β) • Co-stimulation: • Erlotinib (0.1 μM)+Ivermectin (1 μM) (+/− TNF-α/IL-1β) • Erlotinib (0.1 μM)+Ivermectin (5 μM) (+/− TNF-α/IL-1β) • Erlotinib (1 μM)+Ivermectin (1 μM)+/− TNF-α/IL-1β) • Erlotinib (1 μM)+Ivermectin (5 μM) (+/− TNF-α/IL-1β)
(§3) The expression of the CXCL14, CCL5 (chemokines), RNase 7, HBD3 and LL37 (antimicrobial peptides) genes was analyzed by quantitative PCR. The protein concentration of the chemokines CXCL14 and CCL5 was quantified using an ELISA assay.

[2] = test system: primary human keratinocytes; test: CXCL14 and CCL5 protein concentration by ELISA assay in primary human keratinocytes; format: cell-based
Protocol: Another objective of the present study was to identify the effect of ivermectin on the CXCL14 and CCL5 protein level of
as §1, §2, §3

[3] = erlotinib without ivermectin, listed as erlitonib
[4] = erlotinib and TNFα/IL1β, without ivermectin
[5] = ivermectin in combination with erlotinib, +/- TNFα/IL1β

In the case of `C#Cc1cccc(Nc2ncnc3cc(OCCOC)c(OCCOC)cc23)c1` [erlotinib], the “expression of CCL5 (gene, quantitative PCR)” value (shortened to “expression of CCL5”) ([1]; erlotinib without ivermectin) is reported as “induction”, the “expression of CXCL14 (gene, quantitative PCR)” value (from here on “expression of CXCL14”) ([1]; erlotinib without ivermectin) is reported as “induction” and the “expression of HBD3 (gene, quantitative PCR)” value ([1]; erlotinib without ivermectin) is reported as “decreased”. For the same compound, the “expression of RNase 7 (gene, quantitative PCR)” value ([1]; erlotinib without ivermectin) was “greatly decreased”, the “expression of CCL5” value [1, 3] was “overexpression” and the “expression of CXCL14” value [1, 3] was “overexpression”. The “CCL5 protein concentration (ELISA)” value [2, 4] was “increase” and the “CXCL14 protein concentration (ELISA)” value [2, 4] was “increase”.
`CC[C@H](C)[C@H]1O[C@]2(CC[C@@H]1C)C[C@@H]1C[C@@H](C/C=C(\C)[C@@H](O[C@H]3C[C@H](OC)[C@@H](O[C@H]4C[C@H](OC)[C@@H](O)[C@H](C)O4)[C@H](C)O3)[C@@H](C)/C=C/C=C3\CO[C@@H]4[C@H](O)C(C)=C[C@@H](C(=O)O1)[C@]34O)O2` [ivermectin] was tested, and the “expression of CCL5” value [1, 5] was “significant modification of the induction; also recorded: reduce the overexpression”, the “expression of CXCL14” value [1, 5] was “significant modification of the induction; also recorded: reduce the overexpression” and the “expression of HBD3 (gene, quantitative PCR)” value [1, 5] was “induce the expression”. The “expression of RNase 7 (gene, quantitative PCR)” value ([1]; ivermectin in combination with erlotinib, various concentrations) was “re-establish the expression of RNase 7 greatly decreased in the presence of erlotinib but also to induce a strong expression thereof” and the “CXCL14 protein level (ELISA)” value ([2]; ivermectin in combination with erlotinib and TNFα/IL1β) was “decrease the protein level”.
